Data as given in the supplement of paper PMC10307832.

Key:
Test in all cases: relative viability (nuclei count vs DMSO), 5 days (fraction); higher = more cells survive
[1] = compound: COc1cc2ncn(-c3cc(OCc4ccccc4C(F)(F)F)c(C(N)=O)s3)c2cc1OC + N=C(N)NC(=N)NCCc1ccccc1 [Phenformin] (partner 250 µM)
How it was run: (§1)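 Relative viability divides the nuclei count in treated wells by that in vehicle wells. Lung cancer cell lines were seeded in 1536-well plates, dosed by pin tool the next day, and fixed and stained after 5 days in one step with final 0.05% Triton X-100, 1% formaldehyde and 1 ug/ml Hoechst. Dosing was a single drug or a fixed anchor-drug dose plus five library-drug doses (not always all listed) in √10 steps, and values are medians of duplicate plates imaged at 4×.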

[2] = compound: COc1cc2ncn(-c3cc(OCc4ccccc4C(F)(F)F)c(C(N)=O)s3)c2cc1OC + Nc1nc2[nH]cc(CCc3ccc(C(=O)N[C@@H](CCC(=O)O)C(=O)O)cc3)c2c(=O)[nH]1 [Pemetrexed] (partner 0.2 µM)
How it was run: as §1

[3] = compound: COc1cc2ncn(-c3cc(OCc4ccccc4C(F)(F)F)c(C(N)=O)s3)c2cc1OC + CC(=O)Nc1cccc(-n2c(=O)n(C3CC3)c(=O)c3c(Nc4ccc(I)cc4F)n(C)c(=O)c(C)c32)c1 [Trametinib] (partner 0.02 µM)
How it was run: as §1

[4] = compound: COc1cc2ncn(-c3cc(OCc4ccccc4C(F)(F)F)c(C(N)=O)s3)c2cc1OC + CC1(C)CCC(c2ccc(Cl)cc2)=C(CN2CCN(c3ccc(C(=O)NS(=O)(=O)c4ccc(N[C@H](CCN5CCOCC5)CSc5ccccc5)c(S(=O)(=O)C(F)(F)F)c4)cc3)CC2)C1 [Navitoclax] (partner 0.5 µM)
How it was run: as §1

Cell Line	relative viability ([1]; first compound 0.05 µM)	relative viability ([1]; first compound 0.1581 µM)	relative viability ([1]; first compound 0.5 µM)	relative viability ([1]; first compound 1.581 µM)	relative viability ([1]; first compound 5 µM)	relative viability ([2]; first compound 0.05 µM)	relative viability ([2]; first compound 0.1581 µM)	relative viability ([2]; first compound 0.5 µM)	relative viability ([2]; first compound 1.581 µM)	relative viability ([2]; first compound 5 µM)	relative viability ([3]; first compound 0.05 µM)	relative viability ([3]; first compound 0.1581 µM)	relative viability ([3]; first compound 0.5 µM)	relative viability ([3]; first compound 1.581 µM)	relative viability ([3]; first compound 5 µM)	relative viability ([4]; first compound 0.05 µM)	relative viability ([4]; first compound 0.1581 µM)	relative viability ([4]; first compound 0.5 µM)	relative viability ([4]; first compound 1.581 µM)	relative viability ([4]; first compound 5 µM)
NCI-H1437	0.352	0.223	0.117	0.123	0.12	0.317	0.32	0.221	0.232	0.179	0.577	0.376	0.19	0.205	0.234	1.13	1.07	0.151	0.13	0.119
NCI-H2009	0.436	0.333	0.192	0.124	0.111	0.983	0.884	0.43	0.218	0.26	0.248	0.251	0.287	0.129	0.0949	1.14	1.07	0.666	0.0806	0.0608
NCI-H1651	0.318	0.304	0.132	0.102	0.117	0.636	0.578	0.468	0.402	0.326	0.86	0.788	0.755	0.593	0.702	1.12	1.24	0.835	0.0858	0.0692
NCI-H1666	0.591	0.554	0.337	0.315	0.299	0.827	0.83	0.651	0.52	0.447	0.837	0.776	0.653	0.455	0.41	0.814	1.05	0.308	0.225	0.205
NCI-H1734	0.417	0.329	0.322	0.18	0.121	0.401	0.386	0.41	0.25	0.164	0.52	0.558	0.623	0.294	0.163	0.824	0.806	0.35	0.133	0.0981
EPLC-272H		0.323	0.151	0.135	0.15	0.25	0.206	0.104	0.121	0.206	0.285	0.234	0.216	0.154	0.163	1.12	0.982	0.255	0.0998	0.0968
NCI-H2023	0.328	0.395	0.229	0.0904	0.0857	0.202	0.2	0.177	0.107	0.114	0.502	0.501	0.358	0.0995	0.0739	0.977	1.1	0.867	0.0884	0.0956
BEN	0.262	0.28	0.217	0.218	0.206	0.702	0.706	0.667	0.515	0.388	1.16	1.03	0.954	0.546	0.52	0.0682	0.0597	0.0733	0.0523	0.0519
COR-L 105	0.426	0.441	0.353	0.29	0.221	0.924	1.24	0.909	0.409	0.418	0.446	0.436	0.438	0.353	0.326	0.837	0.779	0.509	0.259	0.24
HCC-15	0.486	0.383	0.204	0.122	0.0883	0.23	0.215	0.174	0.156	0.13	0.227	0.378	0.259	0.112	0.0946	0.695	0.641	0.316	0.104	0.0943
NCI-H2170	0.444	0.351	0.32	0.195	0.179	0.251	0.268	0.26	0.184	0.162	0.96	0.885	0.246	0.159	0.153	0.539	0.492	0.202	0.168	0.162
RERF-LC-KJ	0.376	0.396	0.229	0.272	0.259	0.472	0.487	0.439	0.299	0.346	0.935	0.915	0.57	0.456	0.5	0.993	0.874	0.416	0.23	0.414
NCI-H1993	0.474	0.527	0.5	0.495	0.428	0.513	0.616	0.41	0.421	0.448	0.473	0.499	0.387	0.345	0.427	1.22	0.912	0.602	0.507	0.503
NCI-H1915	0.373	0.361	0.286	0.0964	0.0866	0.478	0.489	0.37	0.137	0.0826	0.227	0.172	0.24	0.117	0.0537	0.758	0.739	0.539	0.0643	0.0409
SK-LU-1	0.563	0.519	0.216	0.163	0.15	0.7	0.886	0.351	0.298	0.272	0.469	0.297	0.324	0.295	0.223	0.641	0.56	0.794	0.123	0.113
LOU-NH91	0.734	0.855	0.526	0.297	0.432	0.344	0.357	0.362	0.291	0.264	0.783	0.776	0.719	0.52	0.295	0.715	0.816	0.592	0.445	0.399
